From US20200330420A1, “LONG CHAIN FATTY ACID FORMULATIONS AND THEIR USE IN INHIBITING SALMONELLA INFECTION” (priority 2019, published 2020)

Key:
hilA expression = test: Luciferase assay, hilA::luxCDABE reporter fusion; format: cell-based
Text: (§1) Strains. Salmonella enterica subsp. enterica serovar Typhimurium 14028s, and mutants thereof, were used throughout. Deletion mutants were constructed as previously described (K. A. Datsenko et al., PNAS USA, 97(12), 6640-6645, 2000). Briefly, PCR fragments of kanamycin and chloramphenicol resistance genes containing 40 base pair homology extensions flanking the gene of interest were generated using pKD4 and pKD3 plasmids. The PCR fragments were transformed into a strain expressing λ Red recombinase. Loss of the gene of interest was confirmed using PCR. Unmarked mutants were generated using a helper plasmid pCP20 carrying a gene encoding the FLP recombinase. Marked deletions and constructs were transferred using bacteriophage P22 transduction (N. L. Sternberg et al., Methods Enzymol., 204, 18-43, 1991).
(§2) Luciferase assays. Strains carrying luxCDABE reporter fusions were grown overnight in LB with the necessary antibiotics. Overnight cultures were diluted 100-fold into M9 minimal medium with glucose, antibiotics and 1 mM nonanoic acid (added to repress SPI invasion gene expression to eliminate background luminescence), and grown overnight. The cultures were washed three times with PBS. Bacteria were inoculated at a starting OD600 of 0.02 into 150 μL of LB containing 100 mM MOPS pH 6.7, the necessary antibiotics and compounds to be tested, in a sealed black-walled 96 well plate. Luminescence was measured every 30 minutes for 24 hours using a Biotek Synergy™ H1 microplate reader.

sopB expression = test: Luciferase assay, sopB::luxCDABE reporter fusion; format: cell-based; settings: ΔhilD mutant, rtsA under tetracycline-inducible promoter; 20 μM; FIG. 4A
Text: as §1
as §2, with “Bacteria were inoculated at a starting OD600 of 0.02 into 150 μL of LB containing 100 mM MOPS pH 6.7, the necessary antibiotics and compounds to be tested, in a sealed black-walled 96 well plate.” left out

HilC = HilC (Salmonella typhimurium, UniProt P0CL09); test: Electrophoretic mobility shift assay, HilC binding to hilA promoter DNA; settings: FIG. 7
HilC, sequence (P0CL09 whole entry): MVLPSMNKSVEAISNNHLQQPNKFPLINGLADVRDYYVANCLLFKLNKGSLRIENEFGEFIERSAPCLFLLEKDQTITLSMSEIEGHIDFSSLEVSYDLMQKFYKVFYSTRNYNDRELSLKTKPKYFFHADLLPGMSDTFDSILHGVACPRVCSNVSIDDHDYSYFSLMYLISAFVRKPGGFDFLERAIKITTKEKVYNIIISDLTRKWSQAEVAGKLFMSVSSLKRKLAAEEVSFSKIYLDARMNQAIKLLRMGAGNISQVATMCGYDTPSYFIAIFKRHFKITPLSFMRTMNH
Experimental: (§3) Electrophoretic mobility shift assays (EMSAs). EMSAs were performed as previously described (Y. A. Golubeva et al., M Bio, 7(1), 2016). Briefly, 10 nM of hilA promoter DNA was mixed with 150 μM HilD, HilC or RtsA in a binding buffer containing 20 mM KCl, 1% glycerol, 1 mM DTT, 0.04 mM EDTA, 0.05% Tergitol™ NP-40 and 20 mM HEPES, pH 7.3. cis-2-hexadecenoic acid was tested at concentrations of […] Binding was performed at room temperature for 20 minutes. Samples were separated on 6% Novex® TBE DNA retardation gels, and DNA was stained using SYBR® green (Invitrogen).

RtsA = test: Electrophoretic mobility shift assay, RtsA binding to hilA promoter DNA; design: species or system Salmonella; settings: FIG. 7
Experimental: as §3

HilD [1] = target: T1, HilD (Salmonella typhimurium, UniProt P0CL08); test: Electrophoretic mobility shift assay, HilD binding to hilA promoter DNA; design: 6xHis-NusA (followed by an HRV 3C protease site) (N, cleaved yes); made in house; host or cells: E. coli BL21(DE3), vector pCAV4; settings: FIG. 7
T1 sequence (P0CL08 whole entry): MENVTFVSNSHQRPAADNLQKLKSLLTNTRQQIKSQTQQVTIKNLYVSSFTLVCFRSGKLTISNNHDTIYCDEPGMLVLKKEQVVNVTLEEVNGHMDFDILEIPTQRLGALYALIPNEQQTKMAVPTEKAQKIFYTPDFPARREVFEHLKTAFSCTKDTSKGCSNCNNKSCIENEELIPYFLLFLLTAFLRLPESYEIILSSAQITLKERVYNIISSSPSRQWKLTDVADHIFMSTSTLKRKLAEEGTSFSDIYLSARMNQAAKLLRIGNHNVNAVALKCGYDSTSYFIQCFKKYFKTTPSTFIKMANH

HilD [2] = target: T1, HilD; test: HilD half-life assay (western blot of HilD-3xFLAG); format: cell-based; design: expressed in transfected cells; host or cells: Salmonella Typhimurium 14028s derivative carrying PtetRA-hilD-3xFLAG, with Lon present or absent; settings: Lon mutant (absence of Lon); 20 μM; FIG. 5A
[3] = chain length comparison, FIG. 1E
[4] = hilD only: ΔrtsA ΔhilC, hilD under tetracycline-inducible promoter, 20 μM, FIG. 4C
[5] = 10, 25, 50 and 75 μM fatty acid

SMILES: CCCCCCCCCCCCC/C=C\C(=O)O [c2-HDA, Cis-2-hexadecenoic acid]
- repression of hilA expression (hilA expression; 1 μM, FIG. 1B): 80 fold
- reduction of hilA expression (hilA expression; [3]): 159 fold
- reduction of hilA expression (hilA expression; hilC only (tetracycline-inducible), null hilD and rtsA, FIG. 6B): 20 fold
- repression of hilA in a hilD mutant (hilA expression; hilD mutant, FIG. 4A): modest repression
- repression of hilA expression (hilA expression; [4]): 78 fold
- reduction of hilA expression (hilA expression; rtsA only (tetracycline-inducible), null hilD and hilC, FIG. 6A): 13 fold
- repression of hilA expression (hilA expression; Δlon mutation, 20 μM, FIG. 5B): continued to repress hilA expression
- repression of sopB expression (sopB expression): 11 fold
- binding of HilC to the hilA promoter (HilC; 100 μM fatty acid): prevented binding to the hilA promoter
- binding of HilC to the hilA promoter (HilC; [5]): partially
- binding of RtsA to the hilA promoter (RtsA; 100 μM fatty acid): prevented binding to the hilA promoter
- binding of RtsA to the hilA promoter (RtsA; [5]): partially
- binding of HilD to the hilA promoter (HilD [1]; 20 μM fatty acid, 10 nM hilA promoter DNA): completely inhibited from binding hilA promoter DNA
- binding of HilD to the hilA promoter (HilD [1]; 1, 2, 5 and 10 μM fatty acid): partially
- effect on HilD stability (HilD [2]): no effect on its stability

SMILES: CCCCCCC/C=C\C(=O)O [cis-2-decenoic acid]
- reduction of hilA expression (hilA expression; [3]): 28%

SMILES: CCCCCCCCC/C=C\C(=O)O [cis-2-dodecenoic acid]
- reduction of hilA expression (hilA expression; [3]): 3 fold

SMILES: CCCCCCCCCCCCCCCCC/C=C\C(=O)OC [cis-2-eicosenoic acid methyl ester, reference compound]
- repression of hilA expression (hilA expression; 40 μM methyl ester, FIG. 2B): not to significantly repress hilA expression

SMILES: CCCCCCCCCCCCCCCCC/C=C\C(=O)O [cis-2-eicosenoic acid]
- reduction of hilA expression (hilA expression; [3]): 10 fold
- repression of hilA expression (hilA expression; [4]): 3 fold

SMILES: CCCCCCCCCCCCC/C=C\C(=O)OC [cis-2-hexadecenoic acid methyl ester, reference compound]
- repression of hilA expression (hilA expression; 20 μM methyl ester, FIG. 2A): not to significantly repress hilA expression

SMILES: CCCCCCCC/C=C\CCCCCCCC(=O)O [oleic acid, cis-9-octadecenoic acid, reference compound]
- repression of hilA expression (hilA expression; [4]): 1.2 fold

SMILES: CCCCCCCCCCCCC/C=C/C(=O)O [trans-2-hexadecenoic acid, reference compound]
- less potent in repressing hilA than the cis-isomer (hilA expression; FIG. 1A, 20 μM fatty acids per legend): 31 fold
